# From paper PMC8674143, “Accuracy mechanism of eukaryotic ribosome translocation” (Nature, 2021)
# Biological target: T1, eEF2 (Saccharomyces cerevisiae, UniProt P32324)
# T1 construct: gene EFT1; native full-length eEF2 purified from yeast, diphthamide at residue 699
# Test: X-ray crystallography, […] Å
# Format: binding
# Conditions: on the 80S ribosome with mRNA, Phe-tRNAPhe and fMet-tRNAfMet; GTP pocket of G domain, next to sarcin-ricin loop; Mg2+; 0.25 mM ligand
# T1 sequence (P32324 whole entry): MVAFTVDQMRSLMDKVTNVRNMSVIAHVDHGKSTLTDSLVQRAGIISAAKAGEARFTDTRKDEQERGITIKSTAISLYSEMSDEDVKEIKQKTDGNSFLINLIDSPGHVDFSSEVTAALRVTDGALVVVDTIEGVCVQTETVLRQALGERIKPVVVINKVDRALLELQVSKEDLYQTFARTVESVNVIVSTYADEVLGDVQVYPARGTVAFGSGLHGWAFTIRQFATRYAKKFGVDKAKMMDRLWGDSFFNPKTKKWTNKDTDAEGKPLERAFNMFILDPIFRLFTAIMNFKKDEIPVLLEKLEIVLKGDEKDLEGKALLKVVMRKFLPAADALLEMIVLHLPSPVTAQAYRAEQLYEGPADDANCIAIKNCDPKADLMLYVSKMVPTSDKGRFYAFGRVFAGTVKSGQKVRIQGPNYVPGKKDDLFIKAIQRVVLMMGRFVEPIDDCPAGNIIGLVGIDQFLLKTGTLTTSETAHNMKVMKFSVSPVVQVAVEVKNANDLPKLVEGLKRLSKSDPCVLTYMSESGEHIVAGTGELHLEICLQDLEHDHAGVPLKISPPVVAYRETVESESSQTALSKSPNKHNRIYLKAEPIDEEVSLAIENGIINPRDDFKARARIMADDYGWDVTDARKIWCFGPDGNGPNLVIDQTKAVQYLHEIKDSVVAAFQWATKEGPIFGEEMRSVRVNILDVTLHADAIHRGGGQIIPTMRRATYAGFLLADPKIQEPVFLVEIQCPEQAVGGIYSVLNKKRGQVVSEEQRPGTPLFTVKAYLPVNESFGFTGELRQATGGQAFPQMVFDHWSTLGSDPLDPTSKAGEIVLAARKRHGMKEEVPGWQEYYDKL
compound,measurement,value
Nc1nc2c(ncn2[C@@H]2O[C@H](COP(=O)(O)OP(=O)(O)CP(=O)(O)O)[C@@H](O)[C@H]2O)c(=O)[nH]1 [GMPPCP],"X-ray crystallography, 3.2 Å","native S. cerevisiae eEF2, the nonhydrolyzable GTP analogue GMPPCP, mRNA and two tRNAs"
